Data on three compounds can be found in patent US20020164755A1, “Stable esterase, a process for the extraction thereof, and use thereof for cleaving acyclic monoterpenyl esters into their monoterpenols” (Council of Scientific and Industrial Research, priority 2000, published 2002).

Assay [1] concerns esterase enzyme from palmarosa inflorescence. The assay can be described thus: Hydrolysis of geranyl acetate and other acyclic monoterpenyl esters by crude enzymic preparation from palmarosa inflorescence, GLC monitoring. The assay is classed as biochemical, Cymbopogon martinii. Conditions: for Hydrolysis by crude enzymic preparation (in words): crude enzymic preparation from palmarosa inflorescence; for % Geranyl acetate hydrolyzed: 10 μmol geranyl acetate, 1 mg protein, 30° C. The protocol: The extraction medium for the esterase enzyme consisted of 0.1 M NaPi buffer (pH 6.5) containing 50 mM sodium metabisulphite, 10 mM β-mercaptoethanol, 10 mM ascrobic acid, 0.25 M sucrose and 1 mM EDTA-Na2. Tissue (palmarosa inflorescence) was homogenized in cold extraction medium (1 g tissue/3 ml) in the presence of 50% (w/w) insoluble PVPP (polyvinyl polypyrrolidone), which prevent enzymic browning of the homogenate. The slurry was squeezed through four layers of muslin cloth and centrifuged at 15,000×g for 60 min. Purified amberlite XAD-4 resin (50% of the tissue weight) was added to the supernatant and kept for 5 minutes at 4° C., to remove the endogenous terpenes of the tissue, which can produce a significant artefact in the determination of esterase enzyme activity. The slurry thus formed was filtered through muslin cloth and the clear supernatant obtained was used to determine the acyclic monoterpenyl esters cleaving esterase activity using geranyl acetate as a model substrate. This supernatant fraction was also used for ammonium sulphate fractionation of the esterase enzyme.
Preliminary enzyme assays were done to optimize the assay conditions, and linearity of the reaction rate with time as well as enzyme concentration. The terpenoid substrates were solubilized by its dispersion in the solution of Tween-20 (10 μg/μmol of the substrate). A gas liquid chromatographic (GLC) procedure has been developed to detect the acyclic monoterpenyl esters cleaving esterase activity. […] Saturating levels (10 μmol) of the substrate geranyl acetate and 0.5 to 1.0 mg of the enzyme protein were used in each assay.
(§1) The geranyl acetate cleaving esterase activity was determined by GLC monitoring of geraniol produced by the hydrolysis of geranyl acetate. The assay system consisted of 0.05M Tris-HCl buffer (pH 8.5), 5 mM MgCl2. 6H2O, 1 mM DTE, 2 mM geranyl acetate and enzyme extract (approximately 1 mg protein), in a total volume of 0.5 ml. The reaction mixture was incubated at 30° C. in a sealed capped tube for 3-4 hours. The geraniol produced and leftover geranyl acetate was then extracted with ether and subjected to GLC. The appearance of geraniol peak indicated the presence of geranyl acetate cleaving esterase activity (FIG. 1). A blank with the boiled enzyme was also run simultaneously.
(§2) The gas liquid chromatographic (GLC) analysis, for the determination of geraniol produced and leftover geranyl acetate, was performed using a Perkin Elmer (model 3920 B) apparatus equipped with FID (flame ionization detector) stainless steel column (2 m×3 mm i.d.) packed with 10% FFAP (free fatty acid phase) on chromosorb WAW (80-100 mesh). The operating conditions were: Column temperature isothermal at 165° C., injector and detector temperature 200° C. and 250° C. respectively. Nitrogen and hydrogen flow rate were a adjusted to 30 ml/min and 28 ml/min, respectively. The geraniol and geranyl acetate peaks were identified by coinjecting authentic standards and quantified using a Varian integrator (model 4400).
Time course experiment was performed to study the linearity of the hydrolysis of geranyl acetate during the incubation period using enzymic preparation from palmarosa inflorescence. A linear catalytic rate was found up to six hours of incubation at 30° C. Almost 75% of the geranyl acetate was hydrolyzed after 24 hours of incubation (Table 1, FIG. 2).

Assay [2] has as its system esterase enzyme from palmarosa inflorescence (60-80% ammonium sulphate precipitated fraction). The assay is described as follows: Hydrolysis of mixture of acyclic monoterpenyl esters by 60-80% ammonium sulphate precipitated protein fraction. The class given is biochemical, Cymbopogon martinii. Conditions: 60-80% fraction, 1 mg protein; ester rich fraction from citronella java (geranyl acetate:geranyl formate:citronellyl acetate 60:18:21) as substrate. The protocol: as §1, §2
Monoterpenyl ester rich fraction from citronella java containing geranyl acetate, geranyl formate and citronellyl acetate in proportion (60:18:21) was used as substrate. […] Furthermore, crude esterase enzyme was also able to cleave these acyclic monoterpenyl esters but to a lesser extent.

Where a name gives a salt, the structure may show the parent alone.

For the compound `CC(=O)OCCC(C)CCC=C(C)C` (centres unmarked) [Citronellyl acetate, citronellyl acetate], the “Hydrolysis by crude enzymic preparation (in words)” value in assay [1] was “could also hydrolyze”. Besides, the “% esters hydrolyzed per 3 hours” value in assay [2] is on record as 6.78%.
The like results for `CC(C)=CCC/C(C)=C/COC=O` [Geranyl formate, geranyl formate] were, in that order, “could also hydrolyze” and 4.86%.
For the compound `CC(=O)OC/C=C(\C)CCC=C(C)C` [geranyl acetate], the “% Geranyl acetate hydrolyzed” value was 8.2% in assay [1] (incubation time 2 hour); 22.3% in assay [1] (incubation time 4 hour); 32% in assay [1] (incubation time 6 hour); 35.7% in assay [1] (incubation time 8 hour); 47.1% in assay [1] (incubation time 10 hour); 53.2% in assay [1] (incubation time 12 hour). Besides, the “% esters hydrolyzed per 3 hours” value in assay [2] was 19.23%.
